Test results reported in patent US9636418B2 (priority 2013, dated 2017).
Like-named read-outs stand apart in the source and are kept apart here.

Experiments:
Assay in all cases: cell-based
hNav1.7 = hNav1.7 (Homo sapiens, UniProt Q15858); type: cell-based; details: PatchXpress, read-out: PX hNav1.7 Tonic IC50
hNav1.4 = hNav1.4 (Homo sapiens, UniProt P35499); details: for IC50: PatchXpress, read-out: PX hNav1.4 Tonic IC50
hNav1.5 = hNav1.5 (Homo sapiens, UniProt Q14524); details: PatchXpress, read-out: PX hNav1.5 Tonic IC50
[1] = * = at high concentrations compound would wash off slowly or not at all

Sequence of hNav1.4 (P35499 whole entry): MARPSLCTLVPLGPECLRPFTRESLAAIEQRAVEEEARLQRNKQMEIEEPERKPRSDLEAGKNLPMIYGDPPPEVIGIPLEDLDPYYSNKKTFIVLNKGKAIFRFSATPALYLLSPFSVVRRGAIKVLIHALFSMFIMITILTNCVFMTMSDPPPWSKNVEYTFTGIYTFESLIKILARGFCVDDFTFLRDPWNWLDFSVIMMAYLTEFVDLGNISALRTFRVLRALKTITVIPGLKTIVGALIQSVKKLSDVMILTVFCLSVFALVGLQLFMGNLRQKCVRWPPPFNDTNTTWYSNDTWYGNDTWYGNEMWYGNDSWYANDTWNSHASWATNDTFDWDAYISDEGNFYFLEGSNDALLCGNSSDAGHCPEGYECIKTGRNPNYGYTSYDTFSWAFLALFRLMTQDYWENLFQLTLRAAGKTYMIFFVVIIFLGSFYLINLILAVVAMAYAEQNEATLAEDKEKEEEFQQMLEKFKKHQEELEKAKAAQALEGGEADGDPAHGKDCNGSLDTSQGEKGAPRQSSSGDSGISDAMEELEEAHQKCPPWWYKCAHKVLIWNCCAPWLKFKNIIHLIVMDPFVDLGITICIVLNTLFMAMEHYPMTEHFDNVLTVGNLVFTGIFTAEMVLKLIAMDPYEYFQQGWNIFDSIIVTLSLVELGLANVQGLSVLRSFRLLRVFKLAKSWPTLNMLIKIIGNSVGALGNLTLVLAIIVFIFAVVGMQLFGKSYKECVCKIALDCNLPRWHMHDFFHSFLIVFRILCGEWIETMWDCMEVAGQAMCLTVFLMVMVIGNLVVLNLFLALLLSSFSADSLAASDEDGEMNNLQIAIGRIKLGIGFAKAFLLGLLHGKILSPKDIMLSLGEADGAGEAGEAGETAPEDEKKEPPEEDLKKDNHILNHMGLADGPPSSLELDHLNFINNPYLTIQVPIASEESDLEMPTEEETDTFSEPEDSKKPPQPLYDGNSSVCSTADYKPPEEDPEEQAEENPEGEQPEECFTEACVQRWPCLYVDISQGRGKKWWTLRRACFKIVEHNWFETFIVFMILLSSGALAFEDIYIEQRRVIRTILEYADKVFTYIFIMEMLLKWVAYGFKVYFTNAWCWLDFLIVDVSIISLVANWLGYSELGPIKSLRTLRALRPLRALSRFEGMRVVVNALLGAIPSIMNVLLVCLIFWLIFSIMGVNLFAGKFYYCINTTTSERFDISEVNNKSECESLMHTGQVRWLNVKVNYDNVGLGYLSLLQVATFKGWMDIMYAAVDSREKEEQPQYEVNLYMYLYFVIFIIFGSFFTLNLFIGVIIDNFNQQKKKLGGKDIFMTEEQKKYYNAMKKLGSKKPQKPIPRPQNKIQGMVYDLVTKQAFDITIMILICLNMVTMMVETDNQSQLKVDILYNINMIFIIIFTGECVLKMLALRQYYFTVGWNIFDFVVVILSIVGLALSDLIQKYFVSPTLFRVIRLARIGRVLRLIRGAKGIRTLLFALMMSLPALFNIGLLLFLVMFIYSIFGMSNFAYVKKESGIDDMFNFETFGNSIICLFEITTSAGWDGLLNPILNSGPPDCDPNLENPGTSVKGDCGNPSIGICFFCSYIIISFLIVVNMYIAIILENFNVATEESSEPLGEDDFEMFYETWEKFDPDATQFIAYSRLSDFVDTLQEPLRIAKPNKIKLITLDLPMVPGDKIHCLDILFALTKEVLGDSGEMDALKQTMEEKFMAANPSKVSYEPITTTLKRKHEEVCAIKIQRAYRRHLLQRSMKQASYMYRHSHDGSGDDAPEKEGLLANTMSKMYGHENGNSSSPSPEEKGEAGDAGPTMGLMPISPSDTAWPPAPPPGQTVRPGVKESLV
Sequence of hNav1.5 (Q14524 whole entry): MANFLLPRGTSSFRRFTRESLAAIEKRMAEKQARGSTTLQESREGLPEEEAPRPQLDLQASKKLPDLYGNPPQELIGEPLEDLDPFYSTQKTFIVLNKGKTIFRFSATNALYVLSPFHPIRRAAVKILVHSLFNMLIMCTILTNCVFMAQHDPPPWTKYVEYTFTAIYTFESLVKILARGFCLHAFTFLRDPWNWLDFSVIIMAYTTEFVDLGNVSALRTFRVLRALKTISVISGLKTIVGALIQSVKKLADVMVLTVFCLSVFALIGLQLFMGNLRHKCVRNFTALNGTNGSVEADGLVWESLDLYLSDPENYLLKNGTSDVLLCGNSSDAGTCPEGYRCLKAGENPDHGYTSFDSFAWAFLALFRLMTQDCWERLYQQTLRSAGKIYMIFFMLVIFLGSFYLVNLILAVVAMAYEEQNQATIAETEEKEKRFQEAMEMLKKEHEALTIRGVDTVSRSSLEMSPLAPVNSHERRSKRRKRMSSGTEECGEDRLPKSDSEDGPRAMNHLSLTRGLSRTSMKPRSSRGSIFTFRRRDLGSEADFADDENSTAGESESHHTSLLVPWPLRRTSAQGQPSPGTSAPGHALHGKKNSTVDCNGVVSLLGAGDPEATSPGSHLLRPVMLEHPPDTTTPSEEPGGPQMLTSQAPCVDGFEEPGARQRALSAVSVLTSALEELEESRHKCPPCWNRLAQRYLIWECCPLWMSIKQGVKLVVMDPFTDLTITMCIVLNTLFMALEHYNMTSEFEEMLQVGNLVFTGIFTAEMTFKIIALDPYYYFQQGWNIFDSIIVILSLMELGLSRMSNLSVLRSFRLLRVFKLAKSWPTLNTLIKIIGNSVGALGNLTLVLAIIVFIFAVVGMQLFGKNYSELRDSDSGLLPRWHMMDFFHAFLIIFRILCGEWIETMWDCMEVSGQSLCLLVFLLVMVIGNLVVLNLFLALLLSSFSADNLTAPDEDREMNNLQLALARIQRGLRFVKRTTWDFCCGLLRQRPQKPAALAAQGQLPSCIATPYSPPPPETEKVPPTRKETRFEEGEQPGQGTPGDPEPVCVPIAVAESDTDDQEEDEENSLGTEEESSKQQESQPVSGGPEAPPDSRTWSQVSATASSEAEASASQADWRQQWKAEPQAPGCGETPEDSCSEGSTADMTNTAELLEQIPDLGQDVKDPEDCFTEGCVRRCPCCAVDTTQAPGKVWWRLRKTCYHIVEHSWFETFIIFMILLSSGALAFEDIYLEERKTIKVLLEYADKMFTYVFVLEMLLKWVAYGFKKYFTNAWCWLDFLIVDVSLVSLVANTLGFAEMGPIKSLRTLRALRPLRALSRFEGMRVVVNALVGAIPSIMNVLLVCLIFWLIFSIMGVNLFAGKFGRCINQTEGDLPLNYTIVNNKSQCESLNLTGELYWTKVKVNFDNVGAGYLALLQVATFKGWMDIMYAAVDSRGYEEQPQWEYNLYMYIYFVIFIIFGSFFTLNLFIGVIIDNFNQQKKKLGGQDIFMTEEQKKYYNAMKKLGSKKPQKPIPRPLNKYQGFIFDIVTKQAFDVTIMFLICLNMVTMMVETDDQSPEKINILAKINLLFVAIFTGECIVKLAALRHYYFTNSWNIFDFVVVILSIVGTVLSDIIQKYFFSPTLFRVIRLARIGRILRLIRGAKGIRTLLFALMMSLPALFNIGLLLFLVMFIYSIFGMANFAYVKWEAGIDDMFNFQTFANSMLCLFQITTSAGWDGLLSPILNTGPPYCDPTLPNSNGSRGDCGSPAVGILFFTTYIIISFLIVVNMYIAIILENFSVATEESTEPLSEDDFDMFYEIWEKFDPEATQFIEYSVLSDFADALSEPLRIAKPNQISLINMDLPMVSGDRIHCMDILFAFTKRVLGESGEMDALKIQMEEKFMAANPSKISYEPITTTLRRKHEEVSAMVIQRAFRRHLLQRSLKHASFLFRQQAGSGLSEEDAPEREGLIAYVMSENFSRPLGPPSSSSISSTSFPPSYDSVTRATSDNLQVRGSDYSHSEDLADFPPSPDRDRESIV

Structure (SMILES)	IC50 (hNav1.7; tonic block)	IC50 (hNav1.4; tonic block)	IC50 (hNav1.5; tonic block)	IC50 (hNav1.7; [1])	IC50 (hNav1.4; [1])	Nav1.4/Nav1.7 (hNav1.4; ratio of PX IC50 values)	IC50 (hNav1.5; [1])	Nav1.4/Nav1.7 (hNav1.4; ratio of PX tonic IC50 values)
C#CC[C@H](N)C(=O)N[C@@H](Cc1ccc(O)cc1)C(=O)N[C@H]1CSSC[C@@H]2NC(=O)[C@@H]3CSSC[C@@H](C(=O)N[C@@H](CCCNC(=N)N)C(=O)N[C@@H](CCCCN)C(=O)N[C@H](C(=O)N[C@H](C(N)=O)[C@@H](C)CC)[C@@H](C)CC)NC(=O)[C@H](Cc4c[nH]c5ccccc45)NC(=O)[C@H](CC(C)C)NC(=O)[C@H](CCCCN)NC(=O)[C@H](CSSC[C@H](NC(=O)[C@H]([C@@H](C)O)NC(=O)[C@H](Cc4c[nH]c5ccccc45)NC(=O)[C@H](CCCC)NC(=O)[C@H](Cc4c[nH]c5ccccc45)NC(=O)[C@H](CCCCN)NC(=O)[C@H](CCC(N)=O)NC1=O)C(=O)N[C@@H](CC(=O)O)C(=O)N[C@@H](CO)C(=O)N[C@@H](CCCCN)C(=O)N[C@@H](CCCNC(=N)N)C(=O)N[C@@H](C)C(=O)N3)NC(=O)[C@H](CCC(=O)O)NC(=O)[C@H](CC(C)C)NC(=O)CNC(=O)[C@H](CCC(=O)O)NC2=O [compound 297]	1.87 nM	804 nM	1200 nM					
CCCC[C@@H]1NC(=O)[C@H](Cc2c[nH]c3ccccc23)NC(=O)[C@H](CCCCN)NC(=O)[C@H](CCC(N)=O)NC(=O)[C@@H](NC(=O)[C@H](Cc2ccc(O)cc2)NC(=O)[C@@H](N)CCC(C)C)CSSC[C@@H]2NC(=O)[C@@H]3CSSC[C@@H](C(=O)N[C@@H](CCCNC(=N)N)C(=O)N[C@@H](CCCCN)C(=O)N[C@H](C(=O)N[C@H](C(N)=O)[C@@H](C)CC)[C@@H](C)CC)NC(=O)[C@H](Cc4c[nH]c5ccccc45)NC(=O)[C@H](CC(C)C)NC(=O)[C@H](CCCCN)NC(=O)[C@H](CSSC[C@H](NC(=O)[C@H]([C@@H](C)O)NC(=O)[C@H](Cc4c[nH]c5ccccc45)NC1=O)C(=O)N[C@@H](CC(=O)O)C(=O)N[C@@H](CO)C(=O)N[C@@H](CCCCN)C(=O)N[C@@H](CCCNC(=N)N)C(=O)N[C@@H](C)C(=O)N3)NC(=O)[C@H](CCCNC(=N)N)NC(=O)[C@H](CC(C)C)NC(=O)CNC(=O)[C@H](CCC(=O)O)NC2=O [compound 377]				0.676 nM	8.5 nM	13	420 nM	
C#CC[C@@H]1NC(=O)[C@H](CC(=O)O)NC(=O)[C@@H]2CSSC[C@@H]3NC(=O)[C@H](CCCNC(=N)N)NC(=O)[C@H](CC(C)C)NC(=O)CNC(=O)[C@H](CCC(=O)O)NC(=O)[C@H](CSSC[C@H](NC(=O)[C@@H](N)Cc4ccc(O)cc4)C(=O)N[C@@H](CCC(N)=O)C(=O)N[C@@H](CCCCN)C(=O)N[C@@H](Cc4c[nH]c5ccccc45)C(=O)N[C@@H](CCCC)C(=O)N[C@@H](Cc4c[nH]c5ccccc45)C(=O)N[C@@H]([C@@H](C)O)C(=O)N2)NC(=O)[C@H](CSSC[C@@H](C(=O)N[C@@H](CCCNC(=N)N)C(=O)N[C@@H](CCCCN)C(=O)N[C@@H](CCC(=O)O)C(=O)N[C@H](C(N)=O)[C@@H](C)CC)NC(=O)[C@H](Cc2c[nH]c4ccccc24)NC(=O)[C@H](CC(C)C)NC(=O)[C@H](CCCCN)NC3=O)NC(=O)[C@H](C)NC(=O)[C@H](CCCNC(=N)N)NC(=O)[C@H](CCCCN)NC1=O [compound 330]	0.763 nM	222 nM	5980 nM					
C#CC[C@H](N)C(=O)N[C@@H](Cc1ccc(O)cc1)C(=O)N[C@H]1CSSC[C@@H]2NC(=O)[C@@H]3CSSC[C@@H](C(=O)N[C@@H](CCCNC(=N)N)C(=O)N[C@@H](CCCCN)C(=O)N[C@@H](CCC(=O)O)C(=O)N[C@H](C(N)=O)[C@@H](C)CC)NC(=O)[C@H](Cc4c[nH]c5ccccc45)NC(=O)[C@H](CC(C)C)NC(=O)[C@H](CCCCN)NC(=O)[C@H](CSSC[C@H](NC(=O)[C@H]([C@@H](C)O)NC(=O)[C@H](Cc4c[nH]c5ccccc45)NC(=O)[C@H](CCCC)NC(=O)[C@H](Cc4c[nH]c5ccccc45)NC(=O)[C@H](CCCCN)NC(=O)[C@H](CCC(N)=O)NC1=O)C(=O)N[C@@H](CC(=O)O)C(=O)N[C@@H](CO)C(=O)N[C@@H](CCCCN)C(=O)N[C@@H](CCCNC(=N)N)C(=O)N[C@@H](C)C(=O)N3)NC(=O)[C@H](CCCNC(=N)N)NC(=O)[C@H](CC(C)C)NC(=O)CNC(=O)[C@H](CCC(=O)O)NC2=O [compound 328]	0.515 nM	130 nM	3020 nM					
CCCC[C@@H]1NC(=O)[C@H](Cc2c[nH]c3ccccc23)NC(=O)[C@H](CCCCN)NC(=O)[C@H](CCC(N)=O)NC(=O)[C@@H](NC(=O)[C@H](Cc2ccc(O)cc2)NC(=O)[C@@H](N)CC#N)CSSC[C@@H]2NC(=O)[C@@H]3CSSC[C@@H](C(=O)N[C@@H](CCCNC(=N)N)C(=O)N[C@@H](CCCCN)C(=O)N[C@@H](CCC(=O)O)C(=O)N[C@H](C(N)=O)[C@@H](C)CC)NC(=O)[C@H](Cc4c[nH]c5ccccc45)NC(=O)[C@H](CC(C)C)NC(=O)[C@H](CCCCN)NC(=O)[C@H](CSSC[C@H](NC(=O)[C@H]([C@@H](C)O)NC(=O)[C@H](Cc4c[nH]c5ccccc45)NC1=O)C(=O)N[C@@H](CC(=O)O)C(=O)N[C@@H](CO)C(=O)N[C@@H](CCCCN)C(=O)N[C@@H](CCCNC(=N)N)C(=O)N[C@@H](C)C(=O)N3)NC(=O)[C@H](CCCNC(=N)N)NC(=O)[C@H](CC(C)C)NC(=O)CNC(=O)[C@H](Cc1cn(CCCOCCOCCOCCOCCOCCOCCOCCOCCOCCOCCN)nn1)NC2=O [compound 443]				5.62 nM	172 nM		1330 nM	
C#CC[C@H](N)C(=O)N[C@H]1CSSC[C@@H]2NC(=O)[C@@H]3CSSC[C@@H](C(=O)N[C@@H](CCCNC(=N)N)C(=O)N[C@@H](CCCCN)C(=O)N[C@@H](CCC(=O)O)C(=O)N[C@H](C(N)=O)[C@@H](C)CC)NC(=O)[C@H](Cc4c[nH]c5ccccc45)NC(=O)[C@H](CC(C)C)NC(=O)[C@H](CCCCN)NC(=O)[C@H](CSSC[C@H](NC(=O)[C@H]([C@@H](C)O)NC(=O)[C@H](Cc4c[nH]c5ccccc45)NC(=O)[C@H](CCCC)NC(=O)[C@H](Cc4c[nH]c5ccccc45)NC(=O)[C@H](CCCCN)NC(=O)[C@H](CCC(N)=O)NC1=O)C(=O)N[C@@H](CC(=O)O)C(=O)N[C@@H](CO)C(=O)N[C@@H](CCCCN)C(=O)N[C@@H](CCCNC(=N)N)C(=O)N[C@@H](C)C(=O)N3)NC(=O)[C@H](CCCNC(=N)N)NC(=O)[C@H](CC(C)C)NC(=O)CNC(=O)[C@H](CCC(=O)O)NC2=O [compound 329]	0.269 nM	149 nM	4620 nM					
C#CC[C@@H]1NC(=O)[C@H](CC(=O)O)NC(=O)[C@@H]2CSSC[C@@H]3NC(=O)[C@H](CCC(=O)O)NC(=O)[C@H](CC(C)C)NC(=O)CNC(=O)[C@H](CCC(=O)O)NC(=O)[C@H](CSSC[C@H](NC(=O)[C@@H](N)Cc4ccc(O)cc4)C(=O)N[C@@H](CCC(N)=O)C(=O)N[C@@H](CCCCN)C(=O)N[C@@H](Cc4c[nH]c5ccccc45)C(=O)N[C@@H](CCCC)C(=O)N[C@@H](Cc4c[nH]c5ccccc45)C(=O)N[C@@H]([C@@H](C)O)C(=O)N2)NC(=O)[C@H](CSSC[C@@H](C(=O)N[C@@H](CCCNC(=N)N)C(=O)N[C@@H](CCCCN)C(=O)N[C@H](C(=O)N[C@H](C(N)=O)[C@@H](C)CC)[C@@H](C)CC)NC(=O)[C@H](Cc2c[nH]c4ccccc24)NC(=O)[C@H](CC(C)C)NC(=O)[C@H](CCCCN)NC3=O)NC(=O)[C@H](C)NC(=O)[C@H](CCCNC(=N)N)NC(=O)[C@H](CCCCN)NC1=O [compound 344]	18.4 nM	4220 nM	3550 nM					230
C#CC[C@H](N)C(=O)N[C@@H](Cc1ccc(O)cc1)C(=O)N[C@H]1CSSC[C@@H]2NC(=O)[C@@H]3CSSC[C@@H](C(=O)N[C@@H](CCCNC(=N)N)C(=O)N[C@@H](CCCCN)C(=O)N[C@H](C(=O)N[C@@H](Cc4c[nH]c5ccccc45)C(N)=O)[C@@H](C)CC)NC(=O)[C@H](Cc4c[nH]c5ccccc45)NC(=O)[C@H](CC(C)C)NC(=O)[C@H](CCCCN)NC(=O)[C@H](CSSC[C@H](NC(=O)[C@H]([C@@H](C)O)NC(=O)[C@H](Cc4c[nH]c5ccccc45)NC(=O)[C@H](CCC)NC(=O)[C@H](Cc4c[nH]c5ccccc45)NC(=O)[C@H](CCCCN)NC(=O)[C@H](CCC(N)=O)NC1=O)C(=O)N[C@@H](CC(=O)O)C(=O)N[C@@H](CO)C(=O)N[C@@H](CCCCN)C(=O)N[C@@H](CCCNC(=N)N)C(=O)N[C@@H](C)C(=O)N3)NC(=O)[C@H](CCC(=O)O)NC(=O)[C@H](CC(C)C)NC(=O)CNC(=O)[C@H](CCC(=O)O)NC2=O [compound 300]	0.818 nM	967 nM	5300 nM					
CCCC[C@@H]1NC(=O)[C@H](Cc2c[nH]c3ccccc23)NC(=O)[C@H](CCCCN)NC(=O)[C@H](CCC(N)=O)NC(=O)[C@@H](NC(=O)[C@@H](N)CCN=[N+]=[N-])CSSC[C@@H]2NC(=O)[C@@H]3CSSC[C@@H](C(=O)N[C@@H](CCCNC(=N)N)C(=O)N[C@@H](CCCCN)C(=O)N[C@H](C(=O)N[C@@H](Cc4c[nH]c5ccccc45)C(N)=O)[C@@H](C)CC)NC(=O)[C@H](Cc4c[nH]c5ccccc45)NC(=O)[C@H](CC(C)C)NC(=O)[C@H](CCCCN)NC(=O)[C@H](CSSC[C@H](NC(=O)[C@H]([C@@H](C)O)NC(=O)[C@H](Cc4c[nH]c5ccccc45)NC1=O)C(=O)N[C@@H](CC(=O)O)C(=O)N[C@@H](CO)C(=O)N[C@@H](CCCCN)C(=O)N[C@@H](CCCNC(=N)N)C(=O)N[C@@H](C)C(=O)N3)NC(=O)[C@H](CCC(=O)O)NC(=O)[C@H](CC(C)C)NC(=O)CNC(=O)[C@H](CCC(=O)O)NC2=O [compound 309]	3.21 nM	767 nM	2030 nM					
